One data set deals with T1, Glutaminase(Brain) (Mus musculus, UniProt D3Z7P3).
T1 sequence (D3Z7P3 55-674): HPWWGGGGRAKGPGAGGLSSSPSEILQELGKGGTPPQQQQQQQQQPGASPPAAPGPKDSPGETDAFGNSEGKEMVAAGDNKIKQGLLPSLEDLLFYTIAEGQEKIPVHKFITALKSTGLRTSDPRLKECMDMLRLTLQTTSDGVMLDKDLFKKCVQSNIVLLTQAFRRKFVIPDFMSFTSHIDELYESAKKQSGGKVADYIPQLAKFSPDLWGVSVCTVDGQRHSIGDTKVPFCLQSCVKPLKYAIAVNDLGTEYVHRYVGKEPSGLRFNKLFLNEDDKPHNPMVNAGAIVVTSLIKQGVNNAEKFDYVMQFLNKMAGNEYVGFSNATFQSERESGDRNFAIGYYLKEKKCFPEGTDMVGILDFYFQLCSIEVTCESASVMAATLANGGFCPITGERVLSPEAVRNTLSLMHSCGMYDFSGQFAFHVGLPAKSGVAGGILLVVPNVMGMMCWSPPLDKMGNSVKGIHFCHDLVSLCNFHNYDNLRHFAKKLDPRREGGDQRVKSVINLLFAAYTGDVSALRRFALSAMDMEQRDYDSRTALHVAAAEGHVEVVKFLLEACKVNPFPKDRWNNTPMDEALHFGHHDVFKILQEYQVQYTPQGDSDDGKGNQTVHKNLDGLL
The experiment in a line: Glutaminase enzyme activity using glutaminase enzyme from mice brain/kidney homogenate (Nessler's reagent, ammonia). It counts as biochemical. To be noted: for inhibition at 0.1 µM: read-out: Glutaminase(Brain) activity % inhibition 0.1 μM; for inhibition at 1 µM: read-out: Glutaminase(Brain) activity % inhibition @1 μM. As for the experimental part:
Assay 3: Determination of Glutaminase Enzyme Activity Using Glutaminase Enzyme from Mice Brain/Kidney
Step 1: Preparation of Tissue Homogenates:
Male Balb/c mice were administered 0.28 M ammonium chloride in drinking water for 7 days. The animals were sacrificed and brain/kidney organs collected on dry ice. […] The tissue was homogenized and supernatants were stored at −80° C. until the enzyme assay was performed.
Aim: Compounds were assessed for their ability to inhibit the enzymatic activity of L-glutaminase present in mice brain/kidney homogenate.
Protocol: The assay was performed using a colorimetric method using Nessler's Reagent by quantifying the amount of ammonia formed as a by product during the enzymatic conversion of L-glutamine to glutamate. In the routine assay, 16 μl of tissue homogenate is added to 33 μl of Tris-Hcl phosphate buffer (pH 8) along with 1 μl of DMSO/test compound containing the desired final concentration and vortexed briefly. 50 μl of 20 mM L-glutamine Tris buffer is added to start the reaction and incubated for 15 minutes at 37° C. The ammonia formed is detected by adding 20 μl of reaction mixture to cold water in a 96 well plate followed by 20 μl of Nessler's reagent. The colour developed is measured at 450 nm. Data Analysis: Activity of the test compound is reported as % inhibition and the data is analyzed using Graphpad Prism (Graphpad software; San Diego Calif.) for IC50 determination.

The subject of another data set is MDA-MB-231. The experiment in a line: In vitro cell proliferation assay (MTT), MDA-MB-231. To be noted: Homo sapiens, 72 hours. The class given is cell-based. As for the experimental part:
Assay 4: In Vitro Cell Proliferation Assay in Cancer Cell Lines
Growth inhibition assays were carried out using 10% FBS supplemented media. Cells were seeded at a concentration of 5000-20,000 cells/well in a 96-well plate. Test compounds at a concentration range from 0.01 to 10000 nM were added after 24 hours. Growth was assessed using the 3-[4,5-dimethylthiazol-2-yl]-2,5-diphenyltetrazolium bromide (MTT) dye reduction test at 0 h (prior to the addition of the test compound) and 72 hours after the addition of test compound. Absorbance was read on a Fluostar Optima (BMG Labtech, Germany) at a wave length of 450 nm. Data were analysed using GraphPad Prism and percent inhibition due to the test compound compared to the control was calculated accordingly.

The record followed here is patent US10611759B2, “Glutaminase inhibitors” (Rhizen Pharmaceuticals SA, priority 2014, dated 2020).

Where two headings read alike, the source gives them in different places.

Regarding `O=C(Cc1cccc(OC(F)(F)F)c1)Nc1ccc(N2CCCC(c3nnc(NC(=O)Cc4cccnc4)s3)C2)cn1` (racemic) [Example 3, (RS)-2-(Pyridin-3-yl)-N-(5-(1-(6-(2-(3-(trifluoromethoxy)phenyl)acetamido)pyridin-3-yl)piperidin-3-yl)-1,3,4-thiadiazol-2-yl)acetamide], on Glutaminase(Brain) (0.1 μM, mice brain homogenate), the inhibition at 0.1 µM lay in the range of 25 to 50%. Moreover, the inhibition at 1 µM at Glutaminase(Brain) (1 μM, mice brain homogenate) lay within 50 to 75%. Moreover, the GI50 in the data set with MDA-MB-231 was in the range of 1000 to 3000 nM.
For the compound `O=C(Cc1cccc(OC(F)(F)F)c1)Nc1ccc(N2CCC(c3nnc(NC(=O)Cc4cccnc4)s3)CC2)cn1` [Example-4, 2-(Pyridin-3-yl)-N-(5-(1-(6-(2-(3-(trifluoromethoxy)phenyl)acetamido)pyridin-3-yl)piperidin-4-yl)-1,3,4-thiadiazol-2-yl)acetamide], the inhibition at 0.1 µM at Glutaminase(Brain) (0.1 μM, mice brain homogenate) was in the range of 25 to 50%. Besides, the inhibition at 1 µM on Glutaminase(Brain) (1 μM, mice brain homogenate) fell in the range of 50 to 75%. Further, in the data set on MDA-MB-231, the GI50 lay within 250 to 500 nM.
Compound `O=C(Cc1ccccn1)Nc1ccc(N2CCCC(c3nnc(NC(=O)Cc4cccc(OC(F)(F)F)c4)s3)C2)cn1` (stereo not shown) [Example-7, 2-(Pyridin-2-yl)-N-(5-(3-(5-(2-(3-(trifluoromethoxy)phenyl)acetamido)-1,3,4-thiadiazol-2-yl)piperidin-1-yl)pyridin-2-yl)acetamide] had a melting point of 151 to 153 °C. Besides, the inhibition at 0.1 µM at Glutaminase(Brain) (0.1 μM, mice brain homogenate) was less than 25%. At Glutaminase(Brain) (1 μM, mice brain homogenate), the inhibition at 1 µM was less than 25%.
Regarding `O=C(Cc1cccc(OC(F)(F)F)c1)Nc1ccc(N2CCCC(c3nnc(NC(=O)Cc4ccccn4)s3)C2)nn1` (stereo not shown) [Example-9, 2-(Pyridin-2-yl)-N-(5-(1-(6-(2-(3-(trifluoromethoxy)phenyl)acetamido)pyridazin-3-yl)piperidin-3-yl)-1,3,4-thiadiazol-2-yl)acetamide], on Glutaminase(Brain), the inhibition at 0.1 µM was in the range of 50 to 75% and the inhibition at 1 µM fell in the range of 75 to 100%. For the same compound, the 50% growth inhibitory concentration (GI50) with MDA-MB-231 lay within 100 to 250 nM.
Regarding `O=C(Cc1cccc(OC(F)(F)F)c1)Nc1ccc(N2CCC(c3nnc(NC(=O)Cc4cccnc4)s3)CC2)nn1` [Example-10, 2-(Pyridin-3-yl)-N-(5-(1-(6-(2-(3-(trifluoromethoxy)phenyl)acetamido)pyridazin-3-yl)piperidin-4-yl)-1,3,4-thiadiazol-2-yl)acetamide], the inhibition at 0.1 µM at Glutaminase(Brain) (0.1 μM, mice brain homogenate) fell in the range of 50 to 75%. Further, the inhibition at 1 µM on Glutaminase(Brain) (1 μM, mice brain homogenate) lay in the range of 75 to 100%. This compound also displayed a GI50 in the data set with MDA-MB-231 of 100 to 250 nM.
Regarding `CS(=O)(=O)Nc1cccc(CC(=O)Nc2nnc(C3CCN(c4ccc(NC(=O)Cc5cccc(OC(F)(F)F)c5)nn4)CC3)s2)c1` [Example-11, 2-(3-(Methylsulfonamido)phenyl)-N-(5-(1-(6-(2-(3-(trifluoromethoxy)phenyl)acetamido)pyridazin-3-yl)piperidin-4-yl)-1,3,4-thiadiazol-2-yl)acetamide], the inhibition at 0.1 µM at Glutaminase(Brain) (0.1 μM, mice brain homogenate) is less than 25%. Besides, the inhibition at 1 µM on Glutaminase(Brain) (1 μM, mice brain homogenate) fell in the range of 50 to 75%. For the same compound, the GI50 in the data set on MDA-MB-231 lay in the range of 250 to 500 nM.
Consider `O=C(Cc1ccccc1Cl)Nc1ccc(N2CCC(c3nnc(NC(=O)Cc4ccccn4)s3)CC2)nn1` [Example-12, 2-(2-Chlorophenyl)-N-(6-(4-(5-(2-(pyridin-2-yl)acetamido)-1,3,4-thiadiazol-2-yl)piperidin-1-yl)pyridazin-3-yl)acetamide], for which the inhibition at 0.1 µM on Glutaminase(Brain) (0.1 μM, mice brain homogenate) was in the range of 50 to 75%. The inhibition at 1 µM at Glutaminase(Brain) (1 μM, mice brain homogenate) fell in the range of 75 to 100%. For the same compound, in the data set with MDA-MB-231, the GI50 is less than 100 nM.
Take `O=C(Cc1ccccc1F)Nc1ccc(N2CCC(c3nnc(NC(=O)Cc4ccccn4)s3)CC2)nn1` [Example-14, 2-(2-Fluorophenyl)-N-(6-(4-(5-(2-(pyridin-2-yl)acetamido)-1,3,4-thiadiazol-2-yl)piperidin-1-yl)pyridazin-3-yl)acetamide]: the inhibition at 0.1 µM at Glutaminase(Brain) (0.1 μM, mice brain homogenate) was in the range of 75 to 100%. Moreover, the inhibition at 1 µM on Glutaminase(Brain) (1 μM, mice brain homogenate) fell in the range of 75 to 100%. In the data set with MDA-MB-231, this compound showed a GI50 of less than 100 nM.
With `O=C(Cc1cccc(OC(F)(F)F)c1)Nc1ccc(N2CCC(c3nnc(NC(=O)Cc4cnccn4)s3)CC2)nn1` [Example-15, 2-(Pyrazin-2-yl)-N-(5-(1-(6-(2-(3-(trifluoromethoxy)phenyl)acetamido)pyridazin-3-yl)piperidin-4-yl)-1,3,4-thiadiazol-2-yl)acetamide], on Glutaminase(Brain) (0.1 μM, mice brain homogenate), the inhibition at 0.1 µM lay in the range of 50 to 75%. Besides, the inhibition at 1 µM on Glutaminase(Brain) (1 μM, mice brain homogenate) is 75 to 100%. In addition, in the data set with MDA-MB-231, the GI50 was less than 100 nM.
Regarding `O=C(Cc1ccccn1)Nc1ccc(N2CCC(c3nnc(NC(=O)Cc4cccc(OC(F)(F)F)c4)s3)CC2)nn1` [Example-17, 2-(Pyridin-2-yl)-N-(6-(4-(5-(2-(3-(trifluoromethoxy)phenyl)acetamido)-1,3,4-thiadiazol-2-yl)piperidin-1-yl)pyridazin-3-yl)acetamide], at Glutaminase(Brain), the inhibition at 0.1 µM fell in the range of 75 to 100% and the inhibition at 1 µM was in the range of 75 to 100%. In addition, the concentration for 50% growth inhibition (GI50) in the data set with MDA-MB-231 was less than 100 nM.
On to `O=C(Cc1cccnc1)Nc1ccc(N2CCC(c3nnc(NC(=O)Cc4cccc(OC(F)(F)F)c4)s3)CC2)nn1` [Example-18, 2-(Pyridin-3-yl)-N-(6-(4-(5-(2-(3-(trifluoromethoxy)phenyl)acetamido)-1,3,4-thiadiazol-2-yl)piperidin-1-yl)pyridazin-3-yl)acetamide], for which the inhibition at 0.1 µM on Glutaminase(Brain) (0.1 μM, mice brain homogenate) fell in the range of 75 to 100%. For the same compound, the inhibition at 1 µM at Glutaminase(Brain) (1 μM, mice brain homogenate) lay within 75 to 100%. The compound also displayed a GI50 in the data set with MDA-MB-231 of less than 100 nM.
On to `O=C(Cc1cccc(OC(F)(F)F)c1)Nc1ccc(N2CCC(c3nnc(NC(=O)Cc4c[nH]c5ccccc45)s3)CC2)nn1` [Example-32, N-(6-(4-(5-(2-(1H-indol-3-yl)acetamido)-1,3,4-thiadiazol-2-yl)piperidin-1-yl)pyridazin-3-yl)-2-(3-(trifluoromethoxy)phenyl)acetamide], for which, on Glutaminase(Brain) (0.1 μM, mice brain homogenate), the inhibition at 0.1 µM fell in the range of 25 to 50%. Also, at Glutaminase(Brain) (1 μM, mice brain homogenate), the inhibition at 1 µM lay within 50 to 75%.
For `O=C(Cc1ccccc1F)Nc1ccc(N2CCC(c3nnc(NC(=O)Cc4cnccn4)s3)CC2)nn1` [Example-33, 2-(2-Fluorophenyl)-N-(6-(4-(5-(2-(pyrazin-2-yl)acetamido)-1,3,4-thiadiazol-2-yl)piperidin-1-yl)pyridazin-3-yl)acetamide] the same measures were 25 to 50% and 50 to 75%.
With `O=C(Cc1cccc(OC(F)(F)F)c1)Nc1ccc(N2CCC(c3nnc(NC(=O)Cc4cccc(N5CCC5)c4)s3)CC2)nn1` [Example-34, 2-(3-(Azetidin-1-yl)phenyl)-N-(5-(1-(6-(2-(3-(trifluoromethoxy)phenyl)acetamido)pyridazin-3-yl)piperidin-4-yl)-1,3,4-thiadiazol-2-yl)acetamide], the inhibition at 0.1 µM on Glutaminase(Brain) (0.1 μM, mice brain homogenate) was in the range of 25 to 50%. The inhibition at 1 µM on Glutaminase(Brain) (1 μM, mice brain homogenate) fell in the range of 50 to 75%.
For `O=C(Cc1ccccn1)Nc1ccc(N2CCC(c3nnc(NC(=O)Cc4cccc(Cl)c4)s3)CC2)nn1` [Example-35, 2-(3-Chlorophenyl)-N-(5-(1-(6-(2-(pyridin-2-yl)acetamido)pyridazin-3-yl)piperidin-4-yl)-1,3,4-thiadiazol-2-yl)acetamide] the same measures were 50 to 75% and 75 to 100%.
On to `O=C(Cc1cccc(OC(F)(F)F)c1)Nc1ccc(N2CCC(c3nnc(NC(=O)C(CO)c4ccccc4)s3)CC2)nn1` (stereo not shown) [Example-36, 3-Hydroxy-2-phenyl-N-(5-(1-(6-(2-(3-(trifluoromethoxy)phenyl)acetamido)pyridazin-3-yl)piperidin-4-yl)-1,3,4-thiadiazol-2-yl)propanamide], for which the inhibition at 0.1 µM on Glutaminase(Brain) (0.1 μM, mice brain homogenate) lay within 25 to 50%. Besides, at Glutaminase(Brain) (1 μM, mice brain homogenate), the inhibition at 1 µM fell in the range of 50 to 75%.
